In US20250019350A1, “SYNTHESIS OF THE PROSTATE SPECIFIC MEMBRANE ANTIGEN (PSMA) RADIOLABELED INHIBITOR [18F]DCFPYL” (Progenics Pharmaceuticals, Inc, priority 2023, published 2025):
Values belong to the compound of their own block, whether it stands above or below them.

Assays:
[1] = @ 10 hr; ascorbic acid at 10 mg/mL (Fawdry 2007); cited from earlier work
[2] = Retention/recovery of [19F]DCFPyL on the HLB solvent exchange cartridge as a function of pH (load, wash, product samples); format: physicochemical
Method: The goal of this study was to characterize the impact of pH on the retention of [^18F]DCFPyL on the HLB solvent exchange cartridge. […] The pH of one solution was adjusted to 2 and a second to 4 by adding 1N HCl. A third solution was used without adjusting its native pH of 7.2. Using a BD syringe, 10 mL of each solution was spiked with [^19F]DCFPyL (50 μg) by adding 0.5 mL of a 100 μg/mL stock solution. Each spiked solution was loaded onto a HLB cartridge at a rate of approximately 2 mL/min. […] The eluent from each HLB cartridge was individually collected and identified as the “wash solution.” Each HLB cartridge was then individually eluted with 1 mL of ethanol, the samples collected and are identified as the “product sample.” The load solution and wash solution samples were analyzed using a drug product chemical impurity assay after a 1 to 10 mL dilution with saline, while the ethanolic product samples were analyzed following a 0.5 to 10 dilution with saline.
The goal of this study was to characterize the impact of pH on the retention of ^18F-DCFPyL on the HLB solvent exchange cartridge. […] The pH of one solution was adjusted to 2 and a second to 4 by adding 1N HCl. A third solution was used without adjusting its native pH of 7.2. At this pH the solution will be mainly sodium ascorbate. Using a BD syringe, 10 mL of each solution was spiked with ^19F-DCFPyL (50 μg) by adding 0.5 mL of a 100 μg/mL stock solution. Each spiked solution was loaded onto an HLB cartridge at a rate of approximately 2 mL/min and the solution collected after the HLB column is identified as the load solution. […] Each HLB cartridge was then individually eluted with 1 mL of ethanol, the solution collected after the HLB column is identified as the product sample. The load solution and wash solution samples were analyzed using the drug product chemical impurity assay after a 1 to 10 mL dilution with saline, while the ethanolic product samples were analyzed following a 0.5 to 10 mL dilution with saline.

[3] = cited from earlier work
[4] = HPLC/UV (264 nm) chemical impurity assay; ascorbic acid related impurity; format: physicochemical; settings: 5 mg/mL, pH 6 ascorbic acid solution with free 18F (129 mCi/mL)
Method: Analytical HPLC method was used. The method employs UV detection at 264 nm for chemical impurities, and an Eckert & Ziegler model B-FC-1000 gamma detector for radiochemical assays.
Since the peak has not been previously observed in preparations in the absence of ascorbic acid it is likely ascorbic acid related and was further investigated. A decayed sample from the lot produced was analyzed further and confirmed the presence of the peak, FIG. 35. […] The sample was assayed for chemical impurities at T=0, 4, 10 and 24 hours when held inverted at ambient conditions. […] The impurity only formed with radioactivity exposure but not when stored in light or dark at ambient conditions (see FIG. 37).

[5] = HLB pH 2 Product, first Ethanol elution
[6] = HLB pH 2 Product, second Ethanol elution
[7] = HLB pH 2 Product, third Ethanol elution

SMILES: OC[C@H]1O[C@@H](O)[C@H]([18F])[C@@H](O)[C@@H]1O [FDG]
- de-fluorination [1]: less than 2%

- retention by the HLB cartridge ([2]; 10 mg/mL ascorbic acid, pH 7.2): not meaningfully retained
- 19F-DCFPyL recovered (%) ([2]; HLB Saline pH 7 Rinse): 0.0%
- μg of 19F-DCFPyL recovered ([2]; HLB Saline pH 7 Rinse): Not Detected
- 19F-DCFPyL recovered (%) ([2]; HLB pH 2 Load): 0.0%
- μg of 19F-DCFPyL recovered ([2]; HLB pH 2 Load): Not Detected
- 19F-DCFPyL recovered (%) [2, 5]: 69.5%
- μg of 19F-DCFPyL recovered [2, 5]: 35.423 µg
- 19F-DCFPyL recovered (%) [2, 6]: 21.5%
- μg of 19F-DCFPyL recovered [2, 6]: 10.946 µg
- 19F-DCFPyL recovered (%) [2, 7]: 7.1%
- μg of 19F-DCFPyL recovered [2, 7]: 3.629 µg
- 19F-DCFPyL recovered (%) ([2]; HLB pH 2 Rinse): 0.0%
- μg of 19F-DCFPyL recovered ([2]; HLB pH 2 Rinse): Not Detected
- 19F-DCFPyL recovered (%) ([2]; HLB pH 4 Load): 22.0%
- μg of 19F-DCFPyL recovered ([2]; HLB pH 4 Load): 10.504 µg
- 19F-DCFPyL recovered (%) ([2]; HLB pH 4 Product): 57.7%
- μg of 19F-DCFPyL recovered ([2]; HLB pH 4 Product): 27.989 µg
- 19F-DCFPyL recovered (%) ([2]; HLB pH 4 Rinse): 0.0%
- μg of 19F-DCFPyL recovered ([2]; HLB pH 4 Rinse): Not Detected
- 19F-DCFPyL recovered (%) ([2]; HLB pH 7 Load): 87.4%
- μg of 19F-DCFPyL recovered ([2]; HLB pH 7 Load): 38.239 µg
- 19F-DCFPyL recovered (%) ([2]; HLB pH 7 Product): 0.0%
- μg of 19F-DCFPyL recovered ([2]; HLB pH 7 Product): Not Detected
- 19F-DCFPyL in the load or wash samples ([2]; pH 2): not detected
- μg of 19F-DCFPyL recovered ([2]; pH 2 Control): 50.976 µg
- 19F-DCFPyL in the product sample, % of the total amount recovered from all samples ([2]; pH 4): approximately 68%
- 19F-DCFPyL recovered in the load sample ([2]; pH 4): approximately 31%
- 19F-DCFPyL recovered in the load sample (mass) ([2]; pH 4): < 1 µg
- μg of 19F-DCFPyL recovered ([2]; pH 4 Control): 47.665 µg
- μg of 19F-DCFPyL recovered ([2]; pH 7 Control): 43.759 µg
- 19F-DCFPyL recovered in the wash samples ([2]; pH 7.2): 3.8 µg/mL
SMILES: O=C(O)CC[C@H](NC(=O)N[C@@H](CCCCNC(=O)c1ccc(F)nc1)C(=O)O)C(=O)O [Lot 19F-DCFPyL]

- 4.6 min RT peak (HPLC UV) ([4]; T = 0 hours, ambient): not present
- 4.6 min RT peak (HPLC UV), approximate concentration ([4]; T = 24 hours, relative response factor of 1 to [19F]-DCFPyL standard): ~1.75 µg/mL
SMILES: O=C1O[C@H]([C@@H](O)CO)C(O)=C1O [ascorbic acid]
- pKa [3]: about 4.2
